Values after ≈ are worked out from the molar mass of the structure shown.
Tests used:
recombinant Pa BfrB = biological target: T1, recombinant Pa BfrB (Pseudomonas aeruginosa, UniProt Q9HY79); test: Dissociation constant (Kd), fluorescence quenching titration of apo Pa BfrB; format: binding, P. aeruginosa
T1 construct: made in house; host or cells: E. coli
Procedure: Measurement of Dissociation Constant (Kd) R ecombinant Pa BfrB was expressed in E. coli and purified as previously reported.19 Apo-BfrB (devoid of heme) was utilized for the measurements to prevent heme-driven fluorescence quenching. A 0.5 mL solution contai ning 0.01 µM apo Pa-BfrB in PBS (pH = 7.4) containing0.5% DMSO was plac ed into a 1 cm quartz cuvette wh ere it was titrated with aliq uots of compound dissolved in a 50% (v/v) PBS/DMSO solution. The fluorescence quenching brought by the addition of each aliquot was monitored with the aid of an Agilent Cary Fluorometer , with excitation at 280 nm, emission at 320- 470 nm, 10 x10 nm slit width, and an average of 5 scans per spectrum. Th e binding assay included at least 8 aliquots spanning from ~ 0.1 […]
A control titration was carried out by titrati ng compound into PBS buffer. The Kd was cal culated by fitting the data to equation S4, w here Fb is the fraction bound and Fmax is the fraction bound at saturating compound concentration.
FFbb = FFmmmmmm ? [ccccmmccccccmmcc ]? (S4) […]

A. baumannii 5075 = test: MIC, broth microdilution in M63 media; format: cell-based
Procedure: (§1) Measurement of Minimum Inhibitory Concentrations (MIC). The MIC of compounds and select ed antibiotics against three strains of A. baumannii (5075, ATCC 17988, and ATCC 19606) were determined via the broth microdilution method according to Clinical and Laboratory Standard Instit ute (CLSI) guidelines,15 but culturing […]
(§2) To establish a 2-fold dilution series of compound, 985 μ L of diluted cells was mixed with 15 μ L of compound […]
(§3) dissolved in DMSO, such that the resultant solution had the highest concentration of compound or antibiotic tested and 1.5% DMSO. To carry out the serial dilution from the highest compound concentration, a 150 μ L solution of higher concentration compound or antibiotic was mixed with 150 μ L of cell suspension containing 1.5% DMSO in the wells of a 96 well plate.
(§4) Th e 96 well plate was in cubated for 20 hat 35 °C with continuous orbital shaking (205 cpm) in an Epoch2 microplate reader (BioTek), monitoring the growth by […]
(§5) following the OD600. […]
(§6) FFFFFF = MMMMMMAA iiii ccllccbbiiiicccciilliiMMMMMMAA+ MMMMMMBB iiii ccllccbbiiiicccciilliiMMMMMMBB S2 Time Kill Assays. Time-kill assays were performed with A. baumannii 507 5 by the broth macro- dilution method in M63- medium containing 1.5% DMSO. An overnight culture was diluted to approximately 5 x10^5 CFU/mL in fresh M63 media. The test solutions were prepared by adding compound (KM-5- 35, or KM-5- 25) dissolved in DMSO to 5 mL of diluted cell suspension to yield a solution of the desired compound concentration and 1.5% DMSO, or by the addition of antibiotic dissolved in water and a small volume of DMSO to produce the desired

A. baumannii ATCC 17978 = test: MIC, broth microdilution in M63 media; format: cell-based
Procedure: as §1, §2, §3, §4, §5, §6

A. baumannii ATCC 19606 = test: MIC, broth microdilution in M63 media; format: cell-based
Procedure: as §1, §2, §3, §4, §5, §6

[1] = Acinetobacter baumannii, 5075, 20 h
[2] = Acinetobacter baumannii, ATCC17978, 20 h
[3] = Acinetobacter baumannii, ATCC19606, 20 h

T1 sequence (Q9HY79 whole entry): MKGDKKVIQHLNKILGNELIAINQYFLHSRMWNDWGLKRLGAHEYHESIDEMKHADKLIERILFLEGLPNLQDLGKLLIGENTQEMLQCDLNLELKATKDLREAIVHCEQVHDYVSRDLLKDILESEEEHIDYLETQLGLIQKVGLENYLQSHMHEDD

Row | SMILES | Kd (recombinant Pa BfrB) [µM] | MIC (A. baumannii 5075; 20 h) [µM] | MIC (A. baumannii ATCC 17978; 20 h) [µM] | MIC (A. baumannii ATCC 19606; 20 h) [µM] | MIC (A. baumannii 5075; [1]) [µM] | MIC (A. baumannii ATCC 17978; [2]) [µM] | MIC (A. baumannii ATCC 19606; [3]) [µM]
1 | O=C1NC(=O)c2c(NCc3cc(Br)c(O)cc3O)cccc21 [SB-16-137] | 9 ± 0.4 | > 80 | > 80 | > 80 | – | – | –
2 | O=C1NC(=O)c2c(NCc3cc(F)ccc3O)cccc21 [JAG-5-7] | 24 ± 6 | – | – | – | 60 (≈ 17.2 µg/mL) | 60 (≈ 17.2 µg/mL) | 60 (≈ 17.2 µg/mL)
3 | O=C1NC(=O)c2c(NCc3cc(Br)c(F)cc3O)cccc21 [SB-16-112] | 2 ± 0.6 | 20 (≈ 7.3 µg/mL) | 20 (≈ 7.3 µg/mL) | 20 (≈ 7.3 µg/mL) | – | – | –
4 | O=C1NC(=O)c2c(NCc3cccc(Br)c3O)cccc21 [EB-5-73] | 7 ± 2 | > 40 | 40 (≈ 13.9 µg/mL) | > 40 | – | – | –
5 | O=C1NC(=O)c2c(NCc3ccc(Br)cc3O)cccc21 [EB-5-61] | 13 ± 3 | 50 (≈ 17.4 µg/mL) | 50 (≈ 17.4 µg/mL) | 50 (≈ 17.4 µg/mL) | – | – | –
6 | O=C1NC(=O)c2c(NCc3c(O)cccc3Cl)cccc21 [KM-5-29] | 18 ± 3 | > 60 | > 60 | > 60 | – | – | –
7 | O=C1NC(=O)c2c(NCc3cccc(Cl)c3O)cccc21 [KM-5-30] | 11 ± 3 | > 80 | > 80 | > 80 | – | – | –
8 | O=C1NC(=O)c2c(NCc3ccccc3O)cccc21 [Analog 11, 4-((2-Hydroxybenzyl)amino)isoindoline-1,3-dione] | – | – | – | – | 80 (≈ 21.5 µg/mL) | 120 (≈ 32.2 µg/mL) | 80 (≈ 21.5 µg/mL)
9 | Cc1ccc(CNc2cccc3c2C(=O)NC3=O)c(O)c1 [EB-5-69] | 45 ± 6 | 80 (≈ 22.6 µg/mL) | 80 (≈ 22.6 µg/mL) | 80 (≈ 22.6 µg/mL) | – | – | –
10 | Cc1cc(CNc2cccc3c2C(=O)NC3=O)c(O)cc1Br [SB-16-183] | 3 ± 0.6 | 20 (≈ 7.22 µg/mL) | 20 (≈ 7.22 µg/mL) | > 20 | – | – | –
11 | Cc1cccc(CNc2cccc3c2C(=O)NC3=O)c1O [EB-5-70] | 17 ± 2 | 100 (≈ 28.2 µg/mL) | 100 (≈ 28.2 µg/mL) | 100 (≈ 28.2 µg/mL) | – | – | –
12 | O=C1NC(=O)c2c(NCc3cc(Cl)c(O)cc3O)cccc21 [SB-16-160] | 77 ± 10 | > 80 | > 80 | > 80 | – | – | –
13 | O=C1NC(=O)c2c(NCc3c(O)cccc3Br)cccc21 [EB-5-72] | 15 ± 3 | > 60 | > 60 | > 60 | – | – | –
14 | O=C1NC(=O)c2c(NCc3cccc4c3CCN4)cccc21 [SB-17-140] | 37 ± 1 | – | – | – | > 100 | > 100 | > 100

From PMC12261321, “Inhibitors of the Bacterioferritin Ferredoxin Complex Dysregulate Iron Homeostasis and Kill and Biofilm-Embedded Cells” (ACS Infectious Diseases, 2025)
